Results as given in patent publication US20070197552A1, “Method and composition for treatment of diabetes, hypertension, chronic heart failure and fluid retentive states” (Novo Nordisk A/S, priority 2002, published 2007).
Structures can show the parent of a compound that is named as a salt. Values belong to the compound of their own block, whether it stands above or below them.

What was measured:
[1] = tested on: Non-fasted anaesthetised pigs; assay: In vivo testing of combination treatment: GLP-1 infusion and iv glucose load under DPP IV inhibition, with and without NEP 24.11 inhibition; design: species or system pig
Experimental: Non-fasted anaesthetised pigs (n=5) were given valine-pyrrolidide (250 μmol/kg; V) to inhibit DPP IV activity throughout the experiment. An intraveneous (iv) infusion of GLP-1 (0.75 pmol/kg/min) was started, during which an iv glucose load (0.2 g/kg over 9 min) was given. 90 min after the end of the first GLP-1 infusion, candoxatril was administered iv (5 mg/kg; C), and the protocol (GLP-1 and glucose infusion) was repeated. In addition, during both GLP-1 infusions, simultaneous blood samples were taken from the carotid artery, the renal, femoral, hepatic and portal veins for determination of arterio-venous GLP-1 concentration differences. Samples were analysed for blood glucose, insulin, glucagon and GLP-1 concentrations.

[2] = anaesthetised pigs, iv GLP-1 infusion

melting point: 166 to 169 °C
SMILES: Cn1c(=O)c2c(nc(N3CC[C@H](N)C3)n2Cc2ccccc2)n(C)c1=O (as salt: HCl) [Example 3, (S) 8-(3-Aminopyrrolidin-1-yl)-7-benzyl-1,3-dimethyl-3,7-dihydropurine-2,6-dione]

melting point: 104 to 117 °C
SMILES: Cn1c(=O)c2c(nc(N3CC[C@H](N)C3)n2Cc2ccccc2C#N)n(C)c1=O (as salt: HCl) [Example 8, (S) 2-(8-(3-Aminopyrrolidin-1-yl)-1,3-dimethyl-2,6-dioxo-1,2,3,6-tetrahydropurin-7-ylmethyl)benzonitrile]

melting point: 215 to 217 °C
SMILES: Cn1c(=O)c2c(nc(N3CC[C@H](N)C3)n2Cc2ccccc2Br)n(C)c1=O (as salt: HCl) [Example 12, (S) 8-(3-Aminopyrrolidin-1-yl)-7-(2-bromobenzyl)-1,3-dimethyl-3,7-dihydropurine-2,6-dione]

SMILES: CC(C)[C@H](N)C(=O)N1CCCC1 [VP, valine-pyrrolidide]
plasma levels of GLP-1 (plateau level) ([1]; anaesthetised pigs n=5, iv GLP-1 infusion 0.75 pmol/kg/min, valine-pyrrolidide 250 μmol/kg, candoxatril 5 mg/kg iv, FIG. 1): 73 ± 13 pmol/L
glucagon concentrations ([1]; anaesthetised pigs, 20 min period following C administration, before start of the GLP-1 infusion, FIG. 4): 9 ± 2 pmol/L
insulin secretion (AUC27-67 min) ([1]; anaesthetised pigs, GLP-1 and glucose infusion, FIG. 3): 3606 ± 668 pmol·min/L
renal clearance (organ extraction) of GLP-1 ([1]; anaesthetised pigs, calculated from arterio-venous GLP-1 concentration differences): 58.7±4.3%
metabolic clearance rate of GLP-1 [1, 2]: 25.1 ± 3.9 mL/min/kg
plasma t½ of GLP-1 [1, 2]: 2.5 ± 0.2 min
glucose excursion (ΔAUC2-77 min) ([1]; anaesthetised pigs, iv glucose load 0.2 g/kg over 9 min during GLP-1 infusion, FIG. 2): 59 ± 4 mmol·min/L
glucose elimination rate ([1]; anaesthetised pigs, iv glucose load during GLP-1 infusion): 6.6±0.5 %/min
